Test results reported in EP0090603A2, “Antibacterial compounds” (BEECHAM GROUP PLC, priority 1982, dated 1983).
Values after ≈ are worked out from the molar mass of the structure shown.

Key:
[1] = test system: M. bovigenitalium ATCC 14173; assay: MIC against Mycoplasma, in vitro agar dilution; format: cell-based; details: 144 h; Friis broth solidified with 0.9% agarose, 10^3 to 10^5 C.F.U., 6 days at 37°C; read-out: MIC's against M. bovigenitalium ATCC 14173
[2] = test system: M. bovis NCTC 10131; assay: microbe, parasite or virus in culture; format: cell-based; details: NCTC10131, 144 h, read-out: MIC's against M. bovis NCTC 10131
[3] = test system: M. suipneumoniae J2206/183^b; assay: MIC against Mycoplasma, in vitro agar dilution; format: cell-based; details: Mesomycoplasma hyopneumoniae, 144 h; Friis broth solidified with 0.9% agarose, 10^3 to 10^5 C.F.U., 6 days at 37°C; read-out: MIC's against M. suipneumoniae J2206/183^b
[4] = test system: M. suipneumoniae NCTC 10110; assay: MIC against Mycoplasma, in vitro agar dilution; format: cell-based; details: Mesomycoplasma hyopneumoniae, NCTC10110, 144 h; Friis broth solidified with 0.9% agarose, 10^3 to 10^5 C.F.U., 6 days at 37°C; read-out: MIC's against M. suipneumoniae NCTC 10110
[5] = test system: E. coli E1; assay: MIC against Veterinary Bacteria, in vitro agar dilution; details: Escherichia coli, E1, 18 h, read-out: MIC's against E. coli E1
Protocol: (§1) The activity of the compounds of the Examples against various veterinarily important bacteria, was assayed in vitro using two-fold serial dilutions in Diagnostic Sensitivity Test Agar inoculated with 10^4 organisms.

[6] = test system: M. suipneumoniae TAM 6N; assay: MIC against Mycoplasma, in vitro agar dilution; format: cell-based; details: Mesomycoplasma hyopneumoniae, TAM6N, 144 h; Friis broth solidified with 0.9% agarose, 10^3 to 10^5 C.F.U., 6 days at 37°C; read-out: MIC's against M. suipneumoniae TAM 6N
[7] = test system: Strep. dysgalactiae SPD1; assay: MIC against Veterinary Bacteria, in vitro agar dilution; details: Streptococcus dysgalactiae, SPD1, 18 h, read-out: MIC's against Strep. dysgalactiae SPD1
Protocol: as §1

[8] = test system: M. suipneumoniae Str. 11; assay: MIC against Mycoplasma, in vitro agar dilution; format: cell-based; details: Mesomycoplasma hyopneumoniae, STR.11, 144 h; Friis broth solidified with 0.9% agarose, 10^3 to 10^5 C.F.U., 6 days at 37°C; read-out: MIC's against M. suipneumoniae Str. 11
[9] = test system: S. typhimurium S18; assay: MIC against Veterinary Bacteria, in vitro agar dilution; details: Salmonella enterica, TYPHIMURIUM, 18 h, read-out: MIC's against S. typhimurium S18
Protocol: as §1

[10] = test system: M. suipneumoniae JF 435; assay: MIC against Mycoplasma, in vitro agar dilution; format: cell-based; details: Mesomycoplasma hyopneumoniae, JF435, 144 h; Friis broth solidified with 0.9% agarose, 10^3 to 10^5 C.F.U., 6 days at 37°C; read-out: MIC's against M. suipneumoniae JF 435
[11] = test system: M. suipneumoniae HK(2); assay: MIC against Mycoplasma, in vitro agar dilution; format: cell-based; details: Mesomycoplasma hyopneumoniae, 144 h; Friis broth solidified with 0.9% agarose, 10^3 to 10^5 C.F.U., 6 days at 37°C; read-out: MIC's against M. suipneumoniae HK(2)
[12] = test system: M. dispar NCTC 10125; assay: MIC against Mycoplasma, in vitro agar dilution; format: cell-based; details: 144 h; Friis broth solidified with 0.9% agarose, 10^3 to 10^5 C.F.U., 6 days at 37°C; read-out: MIC's against M. dispar NCTC 10125
[13] = test system: M. suipneumoniae PW/C/210; assay: MIC against Mycoplasma, in vitro agar dilution; format: cell-based; details: Mesomycoplasma hyopneumoniae, 144 h; Friis broth solidified with 0.9% agarose, 10^3 to 10^5 C.F.U., 6 days at 37°C; read-out: MIC's against M. suipneumoniae PW/C/210

SMILES	MIC [1]	MIC [2]	MIC [3]	MIC [4]	MIC [5]	MIC [6]	MIC [7]	MIC [8]	MIC [9]	MIC [10]	MIC [11]	MIC [12]	MIC [13]
CCOC(=O)C(C)=C(C)CC1OCC(CC2OC2C(C)C(C)O)C(O)C1O [Example 1, Ethyl 4-[5S-(2S,3S-epoxy-5S-hydroxy-4S-methylhexyl)-3R,4R-dihydroxytetrahydropyran-2S-yl]-2,3-dimethylbut-2(E)-enoate]	0.05 µg/mL (≈ 0.129 µM)	0.05 µg/mL (≈ 0.129 µM)	2.5 µg/mL (≈ 6.47 µM)	1 µg/mL (≈ 2.59 µM)	> 80 µg/mL	2.5 µg/mL (≈ 6.47 µM)	5 µg/mL (≈ 12.9 µM)	1 µg/mL (≈ 2.59 µM)	> 80 µg/mL	1 µg/mL (≈ 2.59 µM)	1 µg/mL (≈ 2.59 µM)	0.25 µg/mL (≈ 0.647 µM)	0.5 µg/mL (≈ 1.29 µM)
COC(=O)C(C)=C(C)CC1OCC(CC2OC2C(C)C(C)O)C(O)C1O [Example 2, Methyl 4-[5S-(2S,3S-epoxy-5S-hydroxy-4S-methylhexyl)-3R,4R-dihydroxytetrahydropyran-2S-yl]-2,3-dimethylbut-2(E)-enoate]	0.5 µg/mL (≈ 1.34 µM)	0.25 µg/mL (≈ 0.671 µM)	5 µg/mL (≈ 13.4 µM)	5 µg/mL (≈ 13.4 µM)	> 80 µg/mL	10 µg/mL (≈ 26.8 µM)	40 µg/mL (≈ 107 µM)	5 µg/mL (≈ 13.4 µM)	> 80 µg/mL	10 µg/mL (≈ 26.8 µM)	10 µg/mL (≈ 26.8 µM)	1 µg/mL (≈ 2.68 µM)	5 µg/mL (≈ 13.4 µM)
CC(CC1OCC(CC2OC2C(C)C(C)O)C(O)C1O)=C(C)C(=O)O [Example 4, Sodium 4-[5S-(2S, 35-epoxy-5S-hydroxy-4S-methylhexyl)-3R,4R-dihydroxytetrahydropyran-2S-yl]-2,3-dimethylbut-2(E)-enoate]	0.05 µg/mL	0.025 µg/mL	0.25 µg/mL	0.25 µg/mL	> 80 µg/mL	0.25 µg/mL	1.25 µg/mL	0.1 µg/mL	> 80 µg/mL	0.25 µg/mL	0.25 µg/mL	0.05 µg/mL	0.1 µg/mL
CC(CC1OCC(CC2OC2C(C)C(C)O)C(O)C1O)=C(C)C(=O)OCc1cccc([N+](=O)[O-])c1 [Example 3, m-Nitrobenzyl 4-[5S-(2S,3S-epoxy-5S-hydroxy-4S-methylhexyl)-3R,4R-dihydroxytetrahydropyran-2S-yl]-2,3-di-methylbut-2(E)-enoate]	0.025 µg/mL (≈ 0.0507 µM)	0.025 µg/mL (≈ 0.0507 µM)	0.1 µg/mL (≈ 0.203 µM)	0.05 µg/mL (≈ 0.101 µM)	> 80 µg/mL	0.1 µg/mL (≈ 0.203 µM)	0.312 µg/mL (≈ 0.632 µM)	0.05 µg/mL (≈ 0.101 µM)	> 80 µg/mL	0.1 µg/mL (≈ 0.203 µM)	0.1 µg/mL (≈ 0.203 µM)	< 0.01 µg/mL	0.025 µg/mL (≈ 0.0507 µM)
